Measured values published in PubChem BioAssay AID2060511 (Molecular Pharmacology Branch, DTP, NCI, 2025).
pIC50: −log10 of the molar value.

System: 422866-222-R5-J1-PDC spheroids with HUVEC/MSC, viability
Assay: Anticancer human tumor 422866-222-R5-J1-PDC patient-derived pancreatic adenocarcinoma cell line growth inhibition [GQUAD]
Details: for pIC50: curve of first compound; for viability, T/C: stronger effect = lower value
How it was run: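 Multi-cell-type spheroids of tumor cells with HUVEC and mesenchymal stem cells, treated with drug combinations. Concentrations descend in half-log steps from near clinical Cmax, or from 10 microM where Cmax is unknown; viability read-out.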

[1] = second compound 0.0316 µM, first compound 0.0316 µM
[2] = second compound 0.0316 µM, first compound 0.1 µM
[3] = second compound 0.0316 µM, first compound 0.316 µM
[4] = second compound 0.0316 µM, first compound 1 µM
[5] = second compound 0.0316 µM, first compound 3.16 µM
[6] = second compound 0.0316 µM, first compound 10 µM
[7] = second compound 0.1 µM, first compound 0.0316 µM
[8] = second compound 0.1 µM, first compound 0.1 µM
[9] = second compound 0.1 µM, first compound 0.316 µM
[10] = second compound 0.1 µM, first compound 1 µM
[11] = second compound 0.1 µM, first compound 3.16 µM
[12] = second compound 0.1 µM, first compound 10 µM
[13] = second compound 0.316 µM, first compound 0.0316 µM
[14] = second compound 0.316 µM, first compound 0.1 µM
[15] = second compound 0.316 µM, first compound 0.316 µM
[16] = second compound 0.316 µM, first compound 1 µM
[17] = second compound 0.316 µM, first compound 3.16 µM
[18] = second compound 0.316 µM, first compound 10 µM
[19] = second compound 1 µM, first compound 0.0316 µM
[20] = second compound 1 µM, first compound 0.1 µM
[21] = second compound 1 µM, first compound 0.316 µM
[22] = second compound 1 µM, first compound 1 µM
[23] = second compound 1 µM, first compound 3.16 µM
[24] = second compound 1 µM, first compound 10 µM
[25] = second compound 3.16 µM, first compound 0.0316 µM
[26] = second compound 3.16 µM, first compound 0.1 µM
[27] = second compound 3.16 µM, first compound 0.316 µM
[28] = second compound 3.16 µM, first compound 1 µM
[29] = second compound 3.16 µM, first compound 3.16 µM
[30] = second compound 3.16 µM, first compound 10 µM
[31] = second compound 10 µM, first compound 0.0316 µM
[32] = second compound 10 µM, first compound 0.1 µM
[33] = second compound 10 µM, first compound 0.316 µM
[34] = second compound 10 µM, first compound 1 µM
[35] = second compound 10 µM, first compound 3.16 µM
[36] = second compound 10 µM, first compound 10 µM
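Further: spheroids exposed to compounds for seven days before reading.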
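Wherever viability, T/C is given: percent viability relative to DMSO vehicle control taken as 100%.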

`C=CC(=O)N1CCN(c2nc(=O)n(-c3c(C)ccnc3C(C)C)c3nc(-c4c(O)cccc4F)c(F)cc23)C(C)C1` (stereo unspecified) + Cc1cnc(CNC(=O)c2c(=O)c3ccc(N4CCCN(C)CC4)nc3n3c2sc2ccccc23)cn1 was tested, and the pIC50 (second compound 0.0316 µM) was over 7.50, the pIC50 (second compound 0.1 µM) was over 7.50 and the pIC50 (second compound 0.316 µM) was over 7.50. The pIC50 (second compound 1 µM) was over 7.50, the pIC50 (second compound 3.16 µM) was over 7.50 and the pIC50 (second compound 10 µM) was over 7.50. It also gave a viability, T/C [1] of 41.2%, a viability, T/C [2] of 32.1% and a viability, T/C [3] of 28.1%. For the same compound, the viability, T/C [4] was 19.9%, the viability, T/C [5] was 33.4% and the viability, T/C [6] was 30.6%. For the same compound, the viability, T/C [7] was 40.4%, the viability, T/C [8] was 30.4% and the viability, T/C [9] was 26.7%. It also gave a viability, T/C [10] of 25.7%, a viability, T/C [11] of 32.6% and a viability, T/C [12] of 30.6%. For the same compound, the viability, T/C [13] was 36.8%, the viability, T/C [14] was 30.4% and the viability, T/C [15] was 27.2%. For the same compound, the viability, T/C [16] was 29%, the viability, T/C [17] was 34% and the viability, T/C [18] was 33.7%. It also gave a viability, T/C [19] of 29.3%, a viability, T/C [20] of 28.6% and a viability, T/C [21] of 30.2%. The viability, T/C [22] was 28.1%, the viability, T/C [23] was 35.9% and the viability, T/C [24] was 37.7%. It also gave a viability, T/C [25] of 32%, a viability, T/C [26] of 32.4% and a viability, T/C [27] of 29.8%. The viability, T/C [28] was 27.9%, the viability, T/C [29] was 37.3% and the viability, T/C [30] was 36.4%. For the same compound, the viability, T/C [31] was 30.5%, the viability, T/C [32] was 23.3% and the viability, T/C [33] was 28.9%. It also gave a viability, T/C [34] of 27.8%, a viability, T/C [35] of 33.5% and a viability, T/C [36] of 34.2%.
For `CCc1c2c(nc3ccc(O)cc13)-c1cc3c(c(=O)n1C2)COC(=O)[C@]3(O)CC` + Cc1[nH]c2ccc(F)cc2c1-c1nc2c3cccnc3c3ncccc3c2[nH]1, the pIC50 (second compound 0.0316 µM) was 8.60, the pIC50 (second compound 0.1 µM) was 8.66 and the pIC50 (second compound 0.316 µM) was over 9.00. The pIC50 (second compound 1 µM) was 8.70, the pIC50 (second compound 3.16 µM) was 8.84 and the pIC50 (second compound 10 µM) was over 9.00. It also gave a viability, T/C (second compound 0.0316 µM, first compound 0.000999 µM) of 61.3%, a viability, T/C (second compound 0.0316 µM, first compound 0.00316 µM) of 43.6% and a viability, T/C (second compound 0.0316 µM, first compound 0.00999 µM) of 41.5%. For the same compound, the viability, T/C [1] was 41.4%, the viability, T/C (second compound 0.0316 µM, first compound 0.0999 µM) was 36.3% and the viability, T/C [3] was 30.3%. The viability, T/C (second compound 0.1 µM, first compound 0.000999 µM) was 60%, the viability, T/C (second compound 0.1 µM, first compound 0.00316 µM) was 44.6% and the viability, T/C (second compound 0.1 µM, first compound 0.00999 µM) was 38%. The viability, T/C [7] was 34.3%, the viability, T/C (second compound 0.1 µM, first compound 0.0999 µM) was 38.7% and the viability, T/C [9] was 28.1%. The viability, T/C (second compound 0.316 µM, first compound 0.000999 µM) was 52.8%, the viability, T/C (second compound 0.316 µM, first compound 0.00316 µM) was 40.8% and the viability, T/C (second compound 0.316 µM, first compound 0.00999 µM) was 39.5%. The viability, T/C [13] was 45%, the viability, T/C (second compound 0.316 µM, first compound 0.0999 µM) was 39.2% and the viability, T/C [15] was 25.9%. It also gave a viability, T/C (second compound 1 µM, first compound 0.000999 µM) of 55.8%, a viability, T/C (second compound 1 µM, first compound 0.00316 µM) of 45.6% and a viability, T/C (second compound 1 µM, first compound 0.00999 µM) of 39.9%. For the same compound, the viability, T/C [19] was 38%, the viability, T/C (second compound 1 µM, first compound 0.0999 µM) was 38.3% and the viability, T/C [21] was 31.2%. The viability, T/C (second compound 3.16 µM, first compound 0.000999 µM) was 54.3%, the viability, T/C (second compound 3.16 µM, first compound 0.00316 µM) was 40.9% and the viability, T/C (second compound 3.16 µM, first compound 0.00999 µM) was 36.4%. For the same compound, the viability, T/C [25] was 35.4%, the viability, T/C (second compound 3.16 µM, first compound 0.0999 µM) was 37.7% and the viability, T/C [27] was 31.6%. It also gave a viability, T/C (second compound 10 µM, first compound 0.000999 µM) of 48.8%, a viability, T/C (second compound 10 µM, first compound 0.00316 µM) of 41.5% and a viability, T/C (second compound 10 µM, first compound 0.00999 µM) of 44%. The viability, T/C [31] was 40.7%, the viability, T/C (second compound 10 µM, first compound 0.0999 µM) was 34.2% and the viability, T/C [33] was 27.7%.
`COc1ccc([C@@H](O)c2cc(-c3ncnc4cc(N5CCOCC5)ccc34)c(F)cc2Cl)nn1` + Cc1[nH]c2ccc(F)cc2c1-c1nc2c3cccnc3c3ncccc3c2[nH]1 gave a pIC50 (second compound 0.0316 µM) of 5.38, a pIC50 (second compound 0.1 µM) of 5.24 and a pIC50 (second compound 0.316 µM) of 5.49. It also gave a pIC50 (second compound 1 µM) of 5.35, a pIC50 (second compound 3.16 µM) of 5.58 and a pIC50 (second compound 10 µM) of 5.67. For the same compound, the viability, T/C [1] was 81.2%, the viability, T/C [2] was 79.2% and the viability, T/C [3] was 72.2%. For the same compound, the viability, T/C [4] was 68%, the viability, T/C [5] was 54.7% and the viability, T/C [6] was 35.8%. The viability, T/C [7] was 90.6%, the viability, T/C [8] was 78.8% and the viability, T/C [9] was 68.6%. The viability, T/C [10] was 60.2%, the viability, T/C [11] was 62.5% and the viability, T/C [12] was 42.1%. It also gave a viability, T/C [13] of 95.4%, a viability, T/C [14] of 82.4% and a viability, T/C [15] of 74.9%. The viability, T/C [16] was 60.6%, the viability, T/C [17] was 51.3% and the viability, T/C [18] was 38.8%. For the same compound, the viability, T/C [19] was 75.6%, the viability, T/C [20] was 81.8% and the viability, T/C [21] was 66.9%. The viability, T/C [22] was 62.8%, the viability, T/C [23] was 57.5% and the viability, T/C [24] was 38.5%. For the same compound, the viability, T/C [25] was 80.7%, the viability, T/C [26] was 73% and the viability, T/C [27] was 65.4%. For the same compound, the viability, T/C [28] was 64.8%, the viability, T/C [29] was 45.3% and the viability, T/C [30] was 34.6%. For the same compound, the viability, T/C [31] was 64.2%, the viability, T/C [32] was 69% and the viability, T/C [33] was 78.5%. The viability, T/C [34] was 57.1%, the viability, T/C [35] was 46.2% and the viability, T/C [36] was 33.9%.
